Test results as given in PMC10874388, “Cyclic peptides discriminate BCL-2 and its clinical mutants from BCL-XL by engaging a single-residue discrepancy” (Nature Communications, 2024).
“And” between values parts separate entries of the source, which are not always exact repeats. Equal entries are not always repeated. Starred links: 1 amine or outer side, 2 acyl side, 3 side chain; linkers in the order of their positions; H or OH if unused. Positions of bridges follow the written chain, without caps; N, C: chain ends. Residues, ends and D or L forms follow the SMILES beside them. No end group written: not given here. X1 = O=C(C[*:2])NCCNC(=O)c1ccc(C2=N[C@H](C(=O)[*:1])CS2)cc1; cADT = 2-aryl-4,5-dihydrothiazole (ADT) linker

Assays:
[1] = target: T1, BCL-XL (Homo sapiens, UniProt Q07817, DEL27-81); assay: SPR binding assay, BCL-XL; conditions: affinity fitting, mean ± SD of three independent experiments, 25 °C
T1 construct: human BCL-XL (residues 1–210, with 27–81 and 210–233 removed); vector-borne tag of pET-22b (Ni-NTA purification implies a His tag); made in house; host or cells: E. coli BL21 (DE3)
Text: (§1) The DNA fragments encoding human BCL-XL ([…], with […] removed), BCL-w (residues 6–152), MCL-1 (residues 152–308) and BFL-1 (residues 1–151) as previously reported[18] were cloned into a pET-22b vector (Invitrogen), respectively. A chimeric human BCL-2 (including residues 1–50 and 92–207) was constructed, by removing the internal long loop (residues 51–91) and replacing its residues 35–50 with residues 33–48 of BCL-XL to solubilize the protein[14], and then it was cloned into a pET28a-Sumo vector (Invitrogen). All BCL-2 mutants (G101V, F104L, Y103D, D111A) were generated by mutagenic PCR, according to the QuikChange (Stratagene) protocol.
(§2) SPR assays were performed using a Biacore T200 instrument in running buffer consisting 10 mM PBS, 50 μM EDTA and 0.05% Tween-20 at 25 °C. Biotinylated proteins were immobilized on a CAP sensor chip (Cytiva, 28920234). […] The binding affinities were quantified by the Biacore evaluation software using 1:1 binding model. The reproducibility of the assays was confirmed by performing replicate determinations.

[2] = tested on: Daudi cells; assay: Cell viability assay (CellTiter-Glo), Daudi; format: cell-based; conditions: 48 h treatment, CellTiter-Glo
Procedure: The cell lines Jurkat (TIB-152), El4 (TIB-39), Daudi (ccl-213), RS4:11 (crl-1873), A549 (ccl-185), HepG2 (hb-8065) and PANC-1 (crl-1469) were purchased from ATCC (American Type Culture Collection), and MGC-803 (C6582) was purchased from Beyotime (https://www.beyotime.com/product/C6582.htm). […] Daudi and RS4:11 cells were cultured in RPMI-1640 medium (HyClone, SH30809.01) and 10% FBS (Gibco, 10099-141), whereas HepG2, MGC-803 and PANC-1 cells were cultured in MDEM (HyClone, SH30243.01). Cells were maintained at 37 °C under a humidified, 5% (v/v) CO2-containing atmosphere.
Cell viability was measured using CellTiter-Glo® 2.0 Reagent (Promega, G9242). […] After different inhibitors were added into serum-free medium and cultured for 4 h (RS4:11 for 6 h), FBS were supplemented to 10% and then incubated totally for 24 h or 48 h. Finally, the IC50 values were calculated based on measurements using a microplate reader (Thermo, Varioskan LUX). Statistical analysis was performed using software GraphPad Prism 7.0.

[3] = tested on: Jurkat cells; assay: Mitochondrial membrane potential (JC-1), flow cytometry and fluorescence microscopy; format: cell-based
Procedure: For the mitochondrial membrane potential (ΔΨm) analysis, the mitochondrial membrane potential assay kit with JC-1 dye (Beyotime, C2006) was used according to the manufacturer’s protocol. […] The value of ΔΨm was expressed as the ratio of red fluorescence intensity over green fluorescence intensity. After treated with JC-1, fluorescence intensity of Jurkat cells was tested by flow cytometry (BD FACSAria Fusion) and fluorescence microscopy (NIKON Ti-E), respectively. All experiments were performed in triplicate. Statistical analysis was performed using software GraphPad Prism 7.0.

[4] = tested on: RS4:11 cells; assay: Cell viability assay (CellTiter-Glo), RS4:11; format: cell-based; conditions: RS4:11, single wells
Outline: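 Compounds added in serum-free medium for 4 h (RS4:11: 6 h), then FBS brought to 10% and incubation continued to 24 h or 48 h total at 37 °C, 5% CO2. Viability by CellTiter-Glo 2.0 luminescence; IC50 calculated.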

[5] = tested on: Jurkat cells; assay: Apoptosis assay, Annexin V-FITC/PI staining and flow cytometry; format: cell-based
Procedure: Jurkat cells were seeded to 6-well plates at a density of 4 ×10^5 cells per well. Cells were incubated in the presence of DMSO, venetoclax at 2.5 μM, cp1-TAT at 30 μM, cp2-TAT at 30 μM, or cp3-TAT at 20 μM in serum-free RPMI medium for 4 h. After being incubated totally for 24 h, cells were washed once with PBS and stained with 100 μL binding buffer containing 5 μL Annexin V-FITC and 10 μL PI for 15 min, followed by addition of 400 μL binding buffer to detect cell apoptosis with FCM (BD FACSAria Fusion). Statistical analysis was performed using software FlowJo V10 and GraphPad Prism 7.0.

[6] = target: T2, BFL-1 (Homo sapiens, UniProt Q16548); assay: SPR binding assay, BFL-1; conditions: NB = no binding
T2 construct: BFL-1 (residues 1–151); vector-borne tag of pET-22b (Ni-NTA purification implies a His tag); made in house; host or cells: E. coli BL21 (DE3)
T2 sequence (Q16548 1-151): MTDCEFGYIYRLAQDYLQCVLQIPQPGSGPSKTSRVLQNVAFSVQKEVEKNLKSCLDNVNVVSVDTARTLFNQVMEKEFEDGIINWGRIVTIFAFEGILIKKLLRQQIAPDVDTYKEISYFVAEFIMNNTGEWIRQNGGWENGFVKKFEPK
Text: as §1, §2

[7] = target: MCL-1 (Homo sapiens, UniProt Q07820); assay: SPR binding assay, MCL-1; conditions: NB = no binding
Chain of MCL-1 (Q07820 152-308): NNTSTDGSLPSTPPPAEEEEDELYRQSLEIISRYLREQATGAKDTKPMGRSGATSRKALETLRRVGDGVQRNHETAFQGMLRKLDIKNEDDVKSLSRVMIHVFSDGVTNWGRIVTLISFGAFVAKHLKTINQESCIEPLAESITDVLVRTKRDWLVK
Text: as §1, §2

[8] = target: T3, chimeric human BCL-2 (residues 1-50 and 92-207, residues 35-50 replaced with residues 33-48 of BCL-XL) (human, UniProt P10415 1-34; Q07817-1 33-48; P10415 92-207, biotin (biotinylated for SPR; site not stated)); assay: SPR; Biacore T200; biotinylated proteins immobilised on a CAP sensor chip; peptides flowed in multiple cycles (25-12800 nM, depending on the peptides) at 30 uL/min; 10 mM PBS, 50 uM EDTA, 0.05% Tween-20, 25 °C; affinity fitting, 1:1 binding model; conditions: both partners purified
T3 construct: BCL-2, human, residues 1-34 of the chimera (internal loop 51-91 removed; residues 35-50 replaced with residues 33-48 of BCL-XL); BCL-XL, human, residues 33-48, in place of BCL-2 residues 35-50; BCL-2, human, residues 92-207; Biotinylated for SPR; used as such for crystals and fluorescence polarisation; also called BCL-2 WT; source: E. coli BL21 (DE3), purified (Ni-NTA, Superdex 75, RESOURCE Q, …)
T3 chain (looked up): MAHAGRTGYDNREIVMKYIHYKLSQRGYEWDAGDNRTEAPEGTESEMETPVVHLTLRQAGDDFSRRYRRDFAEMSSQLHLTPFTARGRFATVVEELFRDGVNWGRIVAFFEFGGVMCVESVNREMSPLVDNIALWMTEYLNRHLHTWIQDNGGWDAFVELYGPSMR

[9] = target: T4, human BCL-XL (residues 1-210, with 27-81 and 210-233 removed) (human, UniProt Q07817-1 1-209, 27-81 removed, biotin (biotinylated for SPR; site not stated)); assay: as above; conditions: both partners purified
T4 construct: BCL-XL, human; printed as residues 1-210, with 27-81 and 210-233 removed (so the last residue is 209 or 210); source: E. coli BL21 (DE3), purified (Ni-NTA, Superdex 75, RESOURCE Q, Superdex 200)
T4 sequence (Q07817 other isoform, or with tags, fused parts or gaps 27-81 removed | 27-81 removed): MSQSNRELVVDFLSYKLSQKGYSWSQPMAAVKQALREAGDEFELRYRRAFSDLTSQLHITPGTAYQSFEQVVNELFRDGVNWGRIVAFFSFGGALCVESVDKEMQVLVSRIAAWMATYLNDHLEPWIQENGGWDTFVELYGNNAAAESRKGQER

[10] = Figure 6d, 4h, replicate values

## C[C@@H]1NC(=O)[C@@H]2CCCN2C(=O)[C@@H]2CSC(=N2)c2ccc(cc2)C(=O)NCCNC(=O)CSC[C@@H](C(=O)NCC(=O)N[C@@H](CO)C(=O)NCC(=O)N[C@@H](CO)C(=O)N[C@@H](CCCNC(=N)N)C(=O)N[C@@H](CCCCN)C(=O)N[C@@H](CCCCN)C(=O)N[C@@H](CCCNC(=N)N)C(=O)N[C@@H](CCCNC(=N)N)C(=O)N[C@@H](CCC(N)=O)C(=O)N[C@@H](CCCNC(=N)N)C(=O)N[C@@H](CCCNC(=N)N)C(=O)N[C@@H](CCCNC(=N)N)C(=O)N[C@@H](CCC(=O)O)C(=O)N[C@@H](CCC(=O)O)C(=O)N[C@@H](CCC(=O)O)C(=O)N[C@@H](CCC(=O)O)C(=O)N[C@@H](CCC(=O)O)C(=O)N[C@@H](CCC(=O)O)C(=O)N[C@@H](CCC(=O)O)C(=O)N[C@@H](CCC(=O)O)C(N)=O)NC(=O)[C@H](CCC(=O)O)NC(=O)[C@H](Cc2ccc(O)cc2)NC(=O)[C@H](CC(=O)O)NC(=O)[C@H](Cc2c[nH]c3ccccc23)NC(=O)CNC(=O)[C@H](Cc2ccc(O)cc2)NC(=O)[C@H](CCCNC(=N)N)NC1=O [cp1-TAT-8E] (PARYGWDYECGSGSRKKRRQRRREEEEEEEE-NH2; linker N-10 via X1)
[1]
  Kd: 1170 ± 70 nM

## CC[C@H](C)[C@@H]1NC(=O)[C@@H]2CCCN2C(=O)[C@@H]2CSC(=N2)c2ccc(cc2)C(=O)NCCNC(=O)CSC[C@@H](C(=O)NCC(=O)N[C@@H](CO)C(=O)NCC(=O)N[C@@H](CO)C(=O)N[C@@H](CCCNC(=N)N)C(=O)N[C@@H](CCCCN)C(=O)N[C@@H](CCCCN)C(=O)N[C@@H](CCCNC(=N)N)C(=O)N[C@@H](CCCNC(=N)N)C(=O)N[C@@H](CCC(N)=O)C(=O)N[C@@H](CCCNC(=N)N)C(=O)N[C@@H](CCCNC(=N)N)C(=O)N[C@@H](CCCNC(=N)N)C(N)=O)NC(=O)[C@H](CCC(=O)O)NC(=O)[C@H](C(C)C)NC(=O)[C@H](CC(=O)O)NC(=O)[C@H](Cc2c[nH]c3ccccc23)NC(=O)[C@@H]2CCCN2C(=O)[C@H](Cc2ccc(O)cc2)NC(=O)[C@H](CCCNC(=N)N)NC1=O [cp3-TAT] (PIRYPWDVECGSGSRKKRRQRRR-NH2; linker N-10 via X1; C-terminus assumed)
[2]
  IC50: 7940 nM
[3]; [10]
  Q1(%): 56.7% and 57.7% and 59.6%
  Q1(%)/Q3(%): 1.435 and 1.514 and 1.628
  Q3(%): 39.5% and 38.1% and 36.6%
[3]; Jurkat, 4 h treatment, JC-1, flow cytometry, n = 3
  ΔΨm (ratio of red over green fluorescence, Q1/Q3): 1.53
[3]; Jurkat, 24 h treatment (Supplementary Fig. 13)
  Relative ΔΨm by JC-1 fluorescence staining (microscopy): red fluorescence almost disappeared
[4]; 0.0488281 uM
  raw luminescence reading: 433900 and 423300 and 457600 and 413600 and 399000 and 376500
[4]; 0.0976562 uM
  raw luminescence reading: 420200 and 404600 and 437700 and 401400 and 384500 and 361600
[4]; 0.195312 uM
  raw luminescence reading: 419000 and 421800 and 444400 and 422500 and 407600 and 396300
[4]; 0.390625 uM
  raw luminescence reading: 424000 and 396600 and 443200 and 395300 and 386700 and 379800
[4]; 0.78125 uM
  raw luminescence reading: 411200 and 409100 and 439500 and 400400 and 395700 and 387400
[4]; 1.5625 uM
  raw luminescence reading: 353400 and 425900 and 446500 and 460500 and 369200 and 455200
[4]; 3.125 uM
  raw luminescence reading: 352000 and 428300 and 434800 and 455400 and 358000 and 465500
[4]; 6.25 uM
  raw luminescence reading: 339600 and 384800 and 395500 and 428900 and 341900 and 416000
[4]; 12.5 uM
  raw luminescence reading: 266500 and 298700 and 305700 and 333300 and 270500 and 326800
[4]; 12.5 uM, 12.5 µM
  inhibition rate: 37% and 29% and 28% and 21% and 36% and 23%
[4]; 25 uM
  raw luminescence reading: 85450 and 98110 and 94850 and 106300 and 88910 and 106600
[4]; 25 uM, 25 µM
  inhibition rate: 80% and 77% and 78% and 75% and 79%
[4]; 50 uM
  inhibition rate: 100%
[4]; 100 uM
  inhibition rate: 100%
[5]; Figure 6b, replicate values
  cell apoptosis(%): 99.03% and 93.5%
[5]; Jurkat, 24 h, 20 μM
  Proportion of apoptotic cells: 99.03%

## CC[C@H](C)[C@@H]1NC(=O)[C@@H]2CCCN2C(=O)[C@@H]2CSC(=N2)c2ccc(cc2)C(=O)NCCNC(=O)CSC[C@@H](C(N)=O)NC(=O)[C@H](CCC(=O)O)NC(=O)[C@H](C(C)C)NC(=O)[C@H](CC(=O)O)NC(=O)[C@H](Cc2c[nH]c3ccccc23)NC(=O)[C@@H]2CCCN2C(=O)[C@H](Cc2ccc(O)cc2)NC(=O)[C@H](CCCNC(=N)N)NC1=O [cp3] (PIRYPWDVEC-NH2; linker N-10 via X1)
[6]
  Kd: > 12800 nM
[7]
  Kd: > 12800 nM

B1: cp4 (peptide)
peptide: CPIRYGWDEFC
modifications: linker 1-11 via cADT (inferred)
notes: cp4 is cp2 with E6 substituted by G6; source: synthetic peptide
[8]
  Kd: 80 nM
[9]
  Kd: 470 nM

B2: cp5 (peptide)
peptide: CPIRYPWDEFC
modifications: linker 1-11 via cADT (inferred)
notes: cp5 is cp2 with E6 substituted by P6; source: synthetic peptide
[8]
  Kd: 80 nM
[9]
  Kd: 40 nM
